Results from patent publication US6960597B2, “Aza-bridged-bicyclic amino acid derivatives as α4 integrin antagonists” (Orth-McNeil Pharmaceutical, Inc., priority 2000, dated 2005).
Read-outs that look alike come from different tables or passages of the source.

Experiments:
[1] = molecular target: T1, human α4β7 (Homo sapiens, UniProt P13612+P26010); assay: α4β7-K562 Cell Adhesion Assay (α4β7 Mediated Adhesion/VCAM-1); type: cell-based
T1 construct: expressed in transfected cells
T1 sequence (P13612 34-1032): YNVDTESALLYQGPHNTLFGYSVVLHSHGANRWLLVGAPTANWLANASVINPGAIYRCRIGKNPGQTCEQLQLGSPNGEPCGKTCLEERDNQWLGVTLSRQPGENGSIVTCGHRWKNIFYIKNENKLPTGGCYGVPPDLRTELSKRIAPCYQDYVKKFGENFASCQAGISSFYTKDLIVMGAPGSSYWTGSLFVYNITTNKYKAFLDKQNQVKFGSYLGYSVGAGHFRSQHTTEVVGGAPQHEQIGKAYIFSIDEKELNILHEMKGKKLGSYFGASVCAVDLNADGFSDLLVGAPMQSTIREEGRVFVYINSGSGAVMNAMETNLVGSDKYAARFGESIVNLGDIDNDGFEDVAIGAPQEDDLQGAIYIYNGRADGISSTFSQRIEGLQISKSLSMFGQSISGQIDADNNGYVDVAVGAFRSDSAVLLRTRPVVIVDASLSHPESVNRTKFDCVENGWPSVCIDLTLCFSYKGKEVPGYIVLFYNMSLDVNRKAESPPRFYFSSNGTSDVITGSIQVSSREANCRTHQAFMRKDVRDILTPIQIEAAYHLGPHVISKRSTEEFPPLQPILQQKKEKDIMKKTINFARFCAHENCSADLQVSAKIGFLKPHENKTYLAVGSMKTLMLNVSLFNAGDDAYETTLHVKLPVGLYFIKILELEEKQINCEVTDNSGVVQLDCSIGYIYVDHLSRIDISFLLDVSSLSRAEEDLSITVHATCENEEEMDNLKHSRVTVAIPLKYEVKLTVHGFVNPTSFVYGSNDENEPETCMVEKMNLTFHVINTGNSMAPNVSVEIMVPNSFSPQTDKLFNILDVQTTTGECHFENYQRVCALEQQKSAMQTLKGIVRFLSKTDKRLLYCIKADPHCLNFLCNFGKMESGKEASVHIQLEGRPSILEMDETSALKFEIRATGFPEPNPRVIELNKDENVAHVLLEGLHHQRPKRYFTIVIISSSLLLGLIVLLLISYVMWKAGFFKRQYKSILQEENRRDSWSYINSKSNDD
T1 sequence (P26010 20-798): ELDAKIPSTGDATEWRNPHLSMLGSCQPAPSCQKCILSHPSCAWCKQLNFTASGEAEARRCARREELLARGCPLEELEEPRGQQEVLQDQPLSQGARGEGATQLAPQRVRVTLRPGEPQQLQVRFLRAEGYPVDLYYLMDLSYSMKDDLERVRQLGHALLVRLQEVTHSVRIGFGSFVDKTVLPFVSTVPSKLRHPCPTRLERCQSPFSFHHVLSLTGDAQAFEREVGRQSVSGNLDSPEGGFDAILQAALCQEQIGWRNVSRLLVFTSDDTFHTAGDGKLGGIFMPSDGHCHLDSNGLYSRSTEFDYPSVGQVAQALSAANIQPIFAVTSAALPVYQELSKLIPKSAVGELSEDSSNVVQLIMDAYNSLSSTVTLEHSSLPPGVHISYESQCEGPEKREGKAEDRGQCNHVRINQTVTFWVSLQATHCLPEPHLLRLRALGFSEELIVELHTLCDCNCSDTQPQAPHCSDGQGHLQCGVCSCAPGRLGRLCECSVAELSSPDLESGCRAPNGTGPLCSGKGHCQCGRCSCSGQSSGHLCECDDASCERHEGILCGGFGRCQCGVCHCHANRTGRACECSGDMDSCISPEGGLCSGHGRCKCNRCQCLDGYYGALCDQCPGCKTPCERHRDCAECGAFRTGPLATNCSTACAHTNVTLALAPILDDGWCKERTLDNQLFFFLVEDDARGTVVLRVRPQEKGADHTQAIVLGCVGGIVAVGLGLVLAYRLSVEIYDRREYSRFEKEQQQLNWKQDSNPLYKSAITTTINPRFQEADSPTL
How it was run: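 K562 cells stably expressing human α4β7, labelled with 5 μM Calcein AM, adhered for 1 h at room temperature to plates coated with recombinant hVCAM-1 (4.0 μg/mL) in the presence of compound. After washing, cells were lysed in Tris/SDS. Bound cells were read by fluorescence at 485/530 nm.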

[2] = molecular target: T2, α4β1 integrin receptor (Homo sapiens, UniProt P05556+P13612); assay: Ramos Cell Adhesion Assay (α4β1 Mediated Adhesion/VCAM-1); type: cell-based
T2 construct: Ramos Cell Adhesion Assay (α4β1 Mediated Adhesion/VCAM-1); endogenous in cells; host or cells: Ramos cells
How it was run: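 Plates coated overnight at 4° C with recombinant hVCAM-1 (4.0 μg/mL, pH 9.0), then blocked with PBS/1% BSA. Ramos cells labelled with 5 μM Calcein AM adhered 1 h at room temperature with compound; after washing, cells were lysed in SDS and fluorescence read at 485/530 nm.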

[3] = Table IV, μM, read-out: Inhibition of Binding of K562 Cells to Immobilized VCAM-1 IC50
[4] = Table III, μM, read-out: Inhibition of Binding of Ramos Cells to Immobilized VCAM-1 IC50
[5] = Table IV, read-out: Inhibition of Binding of K562 Cells to Immobilized VCAM-1 IC50
[6] = Table III, read-out: Inhibition of Binding of Ramos Cells to Immobilized VCAM-1 IC50
[7] = Table I, racemic mixtures and resolved (S,S) and (R,S) diastereomers, read-out: Antagonist IC50 Activity α4β7
[8] = Table I, racemic mixtures and resolved (S,S) and (R,S) diastereomers, read-out: Antagonist IC50 Activity α4β1

T2 sequence (P05556 21-798, one chain of several): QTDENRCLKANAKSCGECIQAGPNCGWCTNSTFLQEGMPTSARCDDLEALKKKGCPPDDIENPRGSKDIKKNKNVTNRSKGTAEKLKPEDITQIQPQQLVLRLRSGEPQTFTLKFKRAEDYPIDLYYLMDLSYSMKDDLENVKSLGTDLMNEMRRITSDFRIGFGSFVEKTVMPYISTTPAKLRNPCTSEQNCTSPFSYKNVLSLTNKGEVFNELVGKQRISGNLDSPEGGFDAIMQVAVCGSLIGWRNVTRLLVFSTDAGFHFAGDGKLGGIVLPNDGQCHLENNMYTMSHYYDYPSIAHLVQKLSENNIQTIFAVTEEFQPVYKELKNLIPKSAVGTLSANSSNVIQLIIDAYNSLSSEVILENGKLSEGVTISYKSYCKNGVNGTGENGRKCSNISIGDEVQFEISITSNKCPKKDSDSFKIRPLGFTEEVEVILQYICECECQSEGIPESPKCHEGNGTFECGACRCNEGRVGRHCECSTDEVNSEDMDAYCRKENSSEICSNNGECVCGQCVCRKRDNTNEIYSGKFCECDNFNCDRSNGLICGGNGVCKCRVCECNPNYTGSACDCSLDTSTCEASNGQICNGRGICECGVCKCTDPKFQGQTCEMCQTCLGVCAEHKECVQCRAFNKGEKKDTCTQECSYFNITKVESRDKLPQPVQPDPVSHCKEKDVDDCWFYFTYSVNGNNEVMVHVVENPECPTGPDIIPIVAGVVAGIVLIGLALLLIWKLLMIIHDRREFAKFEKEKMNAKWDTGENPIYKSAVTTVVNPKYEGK

Row | IC50 [1, 3] [µM] | IC50 [1, 5] [µM] | IC50 [2, 6] [µM] | SMILES | other results
1 | > 10 | – | – | O=C(O)[C@H](Cc1ccc(OCc2c(Cl)cccc2Cl)cc1)NC(=O)[C@H]1C2CCC(CC2)N1S(=O)(=O)c1ccccc1 [Cpd 41, O-[(2,6-dichlorophenyl)methyl]-N-[[(3R)-2-(phenylsulfonyl)-2-azabicyclo[2.2.2]oct-3-yl]carbonyl]-L-tyrosine] | IC50 [2, 4]: > 5 µM
2 | – | 0.279 | 0.022 | O=C(Nc1ccc(C[C@H](NC(=O)C2C3C=CC(CC3)N2S(=O)(=O)c2ccccc2)C(=O)O)cc1)c1c(Cl)cccc1Cl (stereo partly drawn) [Cpd 42, 4-[(2,6-dichlorobenzoyl)amino]-N-[[2-(phenylsulfonyl)-2-azabicyclo[2.2.2]oct-5-en-3-yl]carbonyl]-L-phenylalanine] | –
3 | – | 0.442 | 0.103 | O=C(Nc1ccc(C[C@H](NC(=O)C2C3CCC(CC3)N2S(=O)(=O)c2ccccc2)C(=O)O)cc1)c1c(F)cc(F)cc1F (stereo partly drawn) [Cpd 43, 4-[(2,4,6-trifluorobenzoyl)amino]-N-[[2-(phenylsulfonyl)-2-azabicyclo[2.2.2]oct-3-yl]carbonyl]-L-phenylalanine] | –
4 | > 10 | – | 3.17 | CC(C)(C)Oc1ccc(C[C@H](NC(=O)C2C3CCC(CC3)N2S(=O)(=O)c2ccccc2)C(=O)O)cc1 (stereo partly drawn) [Cpd 45, O-(1,1-dimethylethyl)-N-[[2-(phenylsulfonyl)-2-azabicyclo[2.2.2]oct-3-yl]carbonyl]-L-tyrosine] | –
5 | > 10 | – | – | O=C(N[C@@H](CCc1ccccc1)C(=O)O)C1C2CCC(CC2)N1S(=O)(=O)c1ccccc1 (stereo partly drawn) [Cpd 46, α(S)-[[[2-(phenylsulfonyl)-2-azabicyclo[2.2.2]oct-3-yl]carbonyl]amino]-benzenebutanoic acid] | IC50 [2, 4]: > 5 µM
6 | – | – | 0.026 | O=C(O)[C@H](Cc1ccc(N2C(=O)c3ccccc3C2=O)cc1)NC(=O)[C@@H]1C2CCC(CC2)N1S(=O)(=O)c1ccccc1 [Cpd 47a, 4-(1,3-dihydro-1,3-dioxo-2H-isoindol-2-yl)-N-[[(3S)-2-(phenylsulfonyl)-2-azabicyclo[2.2.2]oct-3-yl]carbonyl]-L-phenylalanine] | IC50 [1, 7]: 0.102 µM; IC50 [2, 8]: 0.026 µM
7 | > 10 | – | – | O=C(O)c1ccccc1C(=O)Nc1ccc(C[C@H](NC(=O)[C@@H]2C3CCC(CC3)N2S(=O)(=O)c2ccccc2)C(=O)O)cc1 [Cpd 48, 4-[(2-carboxybenzoyl)amino]-N-[[(3S)-2-(phenylsulfonyl)-2-azabicyclo[2.2.2]oct-3-yl]carbonyl]-L-phenylalanine] | IC50 [2, 4]: > 5 µM
8 | > 10 | – | – | Cc1ccc(C)n1-c1ccc(C[C@H](NC(=O)C2C3CCC(CC3)N2S(=O)(=O)c2ccccc2)C(=O)O)cc1 (stereo partly drawn) [Cpd 49, 4-(2,5-dimethyl-1H-pyrrol-1-yl)-N-[[2-(phenylsulfonyl)-2-azabicyclo[2.2.2]oct-3-yl]carbonyl]-L-phenylalanine] | IC50 [2, 4]: > 5 µM
9 | – | 0.81 | 0.055 | O=C(Nc1ccc(C[C@H](NC(=O)C2C3CCC(CC3)N2S(=O)(=O)c2ccccc2)C(=O)O)cc1)c1ccncc1 (stereo partly drawn) [Cpd 50, 4-[(4-pyridinylcarbonyl)amino]-N-[[2-(phenylsulfonyl)-2-azabicyclo[2.2.2]oct-3-yl]carbonyl]-L-phenylalanine] | –
10 | – | 0.223 | 0.054 | O=C(Nc1ccc(C[C@H](NC(=O)[C@@H]2C3CCC(CC3)N2S(=O)(=O)c2ccccc2)C(=O)O)cc1)c1ccncc1 [Cpd 50a, 4-[(4-pyridinylcarbonyl)amino]-N-[[(3S)-2-(phenylsulfonyl)-2-azabicyclo[2.2.2]oct-3-yl]carbonyl]-L-phenylalanine] | –
11 | > 5 | – | 0.784 | O=C(N[C@@H](Cc1ccc(NS(=O)(=O)c2c(Cl)cccc2Cl)cc1)C(=O)O)C1C2CCC(CC2)N1S(=O)(=O)c1ccccc1 (stereo partly drawn) [Cpd 51, 4-[[(2,6-dichlorophenyl)sulfonyl]amino]-N-[[2-(phenylsulfonyl)-2-azabicyclo[2.2.2]oct-3-yl]carbonyl]-L-phenylalanine] | –
12 | – | – | – | CN(C)C(=O)Oc1ccc(C[C@H](NC(=O)[C@@H]2C3CCC(CC3)N2S(=O)(=O)c2ccccc2)C(=O)O)cc1 [Cpd 52a, O-[(dimethylamino)carbonyl]-N-[[(3S)-2-(phenylsulfonyl)-2-azabicyclo[2.2.2]oct-3-yl]carbonyl]-L-tyrosine] | IC50 [1]: 0.436 µM; IC50 ([1]; read-out: Inhibition of Binding of K562 Cells to Immobilized VCAM-1 IC50, Table IV): 0.436 µM; IC50 ([2]; Antagonist IC50 Activity α4β1, Table I, racemic mixtures and resolved (S,S) and (R,S) diastereomers): 0.045 µM; IC50 ([2]; Inhibition of Binding of Ramos Cells to Immobilized VCAM-1 IC50, Table III): 0.04 µM
13 | – | – | 0.219 | CC(C)(C)OC(=O)N1CCC(C(=O)Nc2ccc(C[C@H](NC(=O)[C@@H]3C4CCC(CC4)N3S(=O)(=O)c3ccccc3)C(=O)O)cc2)CC1 [Cpd 53a, 4-[[[1-[(1,1-dimethylethoxy)carbonyl]-4-piperidinyl]carbonyl]amino]-N-[[(3S)-2-(phenylsulfonyl)-2-azabicyclo[2.2.2]oct-3-yl]carbonyl]-L-phenylalanine] | IC50 [1, 7]: 0.693 µM; IC50 [2, 8]: 0.219 µM
14 | – | 0.118 | 0.146 | O=C(Nc1ccc(C[C@H](NC(=O)C2C3CCC(CC3)N2S(=O)(=O)c2ccc(F)cc2)C(=O)O)cc1)c1c(Cl)cccc1Cl (stereo partly drawn) [Cpd 54, 4-[(2,6-dichlorobenzoyl)amino]-N-[[2-[(4-fluorophenyl)sulfonyl]-2-azabicyclo[2.2.2]oct-3-yl]carbonyl]-L-phenylalanine] | –
15 | – | 0.091 | 0.303 | COc1cccc(OC)c1C(=O)Nc1ccc(C[C@H](NC(=O)C2C3CCC(CC3)N2S(=O)(=O)c2ccc(F)cc2)C(=O)O)cc1 (stereo partly drawn) [Cpd 55, 4-[(2,6-dimethoxybenzoyl)amino]-N-[[2-[(4-fluorophenyl)sulfonyl]-2-azabicyclo[2.2.2]oct-3-yl]carbonyl]-L-phenylalanine] | –
16 | – | 0.047 | 0.139 | O=C(N[C@@H](Cc1ccc(OC(=O)N2CCOCC2)cc1)C(=O)O)C1C2CCC(CC2)N1S(=O)(=O)c1ccccc1 (stereo partly drawn) [Cpd 56, O-(4-morpholinylcarbonyl)-N-[[2-(phenylsulfonyl)-2-azabicyclo[2.2.2]oct-3-yl]carbonyl]-L-tyrosine] | –

Row | SMILES | IC50 [1, 3] [µM] | IC50 [1, 5] [µM] | IC50 [2, 6] [µM] | other results
17 | CC(C)N(C(=O)Oc1ccc(C[C@H](NC(=O)C2C3CCC(CC3)N2S(=O)(=O)c2ccccc2)C(=O)O)cc1)C(C)C (stereo partly drawn) [Cpd 57, O-[[bis(1-methylethyl)amino]carbonyl]-N-[[2-(phenylsulfonyl)-2-azabicyclo[2.2.2]oct-3-yl]carbonyl]-L-tyrosine] | > 5 | – | 0.757 | –
